Values quoted from earlier work, collected in patent publication US7955624B2, “Compositions and methods for increasing adipose metabolism, lipolysis or lipolytic metabolism via thermogenesis” (HHC Formulations Ltd., priority 2006, dated 2011).
One block for each molecule: values may come before it.

Tests used:
[1] = active treatment versus placebo
[2] = mice
[3] = not given; remark: listed apart in the source
[4] = mice; remark: listed apart in the source

Molecule: O=C(O)c1cccnc1 [Niacin, nicotinic acid]
- high-density lipoprotein cholesterol (HDL-C) [1]: increase
- low-density lipoprotein cholesterol (LDL-C) [1]: decrease
- total cholesterol [1]: decrease
- triglyceride levels [1]: decrease

Molecule: Cn1c(=O)c2c(ncn2C)n(C)c1=O [caffeine]
- basal metabolic rate (humans): increase the basal metabolic rate
- weight loss (obese women, caffeine supplementation): Significant weight loss

Molecule: CN(C)CCO [deanol, dimethylaminoethanol]
- plasma and tissue levels of choline [2]: increase

- food intake and growth ([3]; highest dose, 10% phytic acid): reduction
Molecule: O=P(O)(O)O[C@H]1[C@H](OP(=O)(O)O)[C@@H](OP(=O)(O)O)[C@H](OP(=O)(O)O)[C@@H](OP(=O)(O)O)[C@H]1OP(=O)(O)O [inositol hexaphosphate, Inositol hexaphosphate]
- reducing triglycerides, cholesterol and lipogenic enzymes ([3]; 0.02% to 10% phytic acid in a high sucrose diet): dose-dependent response

Molecule: evodiamine
- secretion of adrenergic signaling molecules (bovine adrenal medulla): increase the secretion
- body fat [4]: decrease body fat
- energy expenditure [4]: increase energy expenditure
- lipid mobilization [4]: increase
